The subject of assay [1] is C. difficile strain ATCC43255 toxin A. In words: Toxin A production in high cell density stationary phase cultures (ELIFA). The note with it: 4 day old stationary phase cultures. The format is cell-based. As to the method:
C. difficile strain ATCC43255 was grown and maintained anaerobically on CDC anaerobe agar (Remel, Lenexa, Kans.). To test the effect of antibacterial agents on growth, cells were grown anaerobically for 40 h at 35° C. in 96-well brain heart infusion (BHI) broth cultures, with an initial inoculum of 10^6 CFU/mL. To test the effect of antibacterial agents on toxin production at high C. difficile cell densities, the cells were grown anaerobically for 24 h at 35° C. in 96-well brain heart infusion (BHI) broth cultures. Spent medium was then replaced with fresh broth containing MetRS inhibitors and control agents at a concentration range of 0.015-16 μg/mL. After 4 days, growth and cell viability were monitored by optical density measurements at 595 nm and by culture on CDC anaerobe agar, respectively. Culture supernatants were collected, and toxin A was detected by ELIFA (enzyme-linked immuno-flow assay) using an anti toxin A monoclonal antibody (Novus Biologicals, Centennial, Colo.).

A further assay relates to C. difficile. Nature of the assay: C. difficile-infected hamster survival study. It is filed as in vivo, hamsters. As to the method:
Animal studies were performed to determine the efficacy of MetRS inhibitors for treating C. difficile-infections. The MetRS inhibitors tested were two compounds of formula (II), 5-[3-((R)-6,8-Dibromo-chroman-4-ylamino)-propylamino]-4H-thieno[3,2-b]pyridine-7-one (both racemic mixture and the R enantiomer) and 5-[3-((R)-8-Bromo-6-chloro-chroman-4-ylamino)-propylamino]-4H-thieno[3,2-b]pyridin-7-one. Also tested was a compound of formula (IV), 2-(3-{3,5-Dibromo-2-[2-(4-methyl-thiazol-5-yl)-ethoxy]-benzylamino}-propylamino)-1H-quinolin-4-one.
Results were compared to C. difficile-infected hamsters treated with the conventional antibiotic, vancomycin. Infected hamsters were treated with either a solution or suspension of a MetRS inhibitor at 5 to 50 mg/kg or vancomycin at 2.5, 5 or 25 mg/kg. There were eight hamsters per group with the final endpoint of the experiment being survival. Expired hamsters were examined for GI condition.

In assay [2] the test system is clinical isolates of C. difficile. In words: Sporulation of C. difficile clinical isolates. The format is cell-based.

As for `Cl.Cl.O=c1cc(NCCCN[C@@H]2CCOc3c(Br)cc(Br)cc32)[nH]c2ccsc12` [R-(+)-5-[3-(6,8-Dibromo-chroman-4-ylamino)-propylamino]-4H-thieno[3,2-b]pyridin-7-one di-hydrochloride], in assay [1], the “concentration inhibiting toxin production” value was found to be 0.25 µg/mL. As for `CN[C@H](CC(C)C)C(=O)N[C@H]1C(=O)N[C@@H](CC(N)=O)C(=O)N[C@H]2C(=O)N[C@H]3C(=O)N[C@H](C(=O)N[C@H](C(=O)O)c4cc(O)cc(O)c4-c4cc3ccc4O)[C@H](O)c3ccc(c(Cl)c3)Oc3cc2cc(c3O[C@@H]2O[C@H](CO)[C@@H](O)[C@H](O)[C@H]2O[C@H]2C[C@](C)(N)[C@H](O)[C@H](C)O2)Oc2ccc(cc2Cl)[C@H]1O` [vancomycin, reference compound], the survival in the assay with C. difficile (Day 28, vancomycin treatment (2.5, 5 or 25 mg/kg)) was 0-10%. Turning to `O=c1cc(NCCCNC2CCOc3c(Br)cc(Br)cc32)[nH]c2ccsc12` (stereo not drawn) [5-[3-(6,8-Dibromo-chroman-4-ylamino)-propylamino]-4H-thieno[3,2-b]pyridin-7-one], the “concentration inhibiting toxin production” value in assay [1] is 0.25 µg/mL.

As for `O=c1cc(NCCCN[C@@H]2CCOc3c(Br)cc(Br)cc32)[nH]c2ccsc12` [5-[3-((R)-6,8-Dibromo-chroman-4-ylamino)-propylamino]-4H-thieno[3,2-b]pyridine-7-one], the “efficacy ranking among tested MetRS inhibitors” value in the assay on C. difficile (infected hamsters, survival) is given as “best efficacy”. Also, the “spores (ratio of spores to total cells)” value is on record as below 2% in assay [2] (0.25×MIC, 96 hours, all strains) and below 1% in assay [2] (0.5×MIC, 96 hours, all strains).

Take `Cc1ncsc1CCOc1c(Br)cc(Br)cc1CNCCCNc1cc(=O)c2sccc2[nH]1`: the “concentration inhibiting toxin production” value in assay [1] worked out at 0.25 µg/mL. The same measure, in the same setting: with `Cl.Cl.Cl.O=c1cc(NCCCNC2CCNc3c(Br)cc(Br)cc32)[nH]c2ccsc12` (stereo not drawn) [5-[3-(6,8-Dibromo-1,2,3,4-tetrahydro-quinolin-4-ylamino)-propylamino]-4H-thieno[3,2-b]pyridin-7-one tri-hydrochloride] the figure was 0.25 µg/mL. On to `Cc1ncc([N+](=O)[O-])n1CCO` [metronidazole, reference compound], for which, in assay [2] (subMIC concentrations, all tested strains), the “spores (ratio of spores to total cells)” value is recorded as “up to 100%”.

Source of the values: patent US8658670B2 (Crestone, Inc., priority 2006, dated 2014).
